test: Henry solubility constant Hcp at 298.15 K (mol/(m3 Pa)); details: reference: Ashworth et al. (1988)

Row | SMILES | Henry solubility constant Hcp
1 | Cc1cccc(C)c1 [1,3-dimethylbenzene] | 0.0013
2 | ClC(Br)Br [dibromochloromethane] | 0.0085
3 | ClCCl [dichloromethane] | 0.0034
4 | CC(=O)CC(C)C [4-methyl-2-pentanone] | 0.022
5 | ClC(Cl)C(Cl)Cl [1,1,2,2-tetrachloroethane] | 0.022
6 | Cc1cc(C)cc(C)c1 [1,3,5-trimethylbenzene] | 0.0014
7 | C1CCCCC1 [cyclohexane] | 5.5e-05
8 | Clc1cccc(Cl)c1 [1,3-dichlorobenzene] | 0.003
9 | CC(Cl)CCl (centres undefined) [1,2-dichloropropane] | 0.0038
10 | CCCl [chloroethane] | 0.00079
11 | C=C(Cl)Cl [1,1-dichloroethene] | 0.00037
12 | COCCO [2-methoxyethanol] | 0.00022
13 | Cc1ccccc1 [methylbenzene] | 0.0015
14 | ClC(Cl)(Cl)C(Cl)(Cl)Cl [hexachloroethane] | 0.0012
15 | CCc1ccccc1 [ethylbenzene] | 0.0012
16 | CCCc1ccccc1 [propylbenzene] | 0.0009
17 | c1ccccc1 [benzene] | 0.0018

Row | SMILES | Henry solubility constant Hcp
18 | Clc1ccc(Cl)cc1 [1,4-dichlorobenzene] | 0.0031
19 | CC(C)c1ccccc1 [(2-propyl)-benzene] | 0.0016
20 | C=CCl [chloroethene] | 0.0004
21 | CCCCCCCCC [nonane] | 2.3e-05
22 | Cc1ccc(C)cc1 [1,4-dimethylbenzene] | 0.0013
23 | c1ccc2c(c1)CCCC2 [1,2,3,4-tetrahydronaphthalene] | 0.0051
24 | CC(Cl)(Cl)Cl [1,1,1-trichloroethane] | 0.00057
25 | CCCC(C)C [2-methylpentane] | 1.3e-05
26 | C1CCC2CCCCC2C1 (centres undefined) [decahydronaphthalene] | 7.2e-05
27 | ClC=C(Cl)Cl [trichloroethene] | 0.00095
28 | CCCCCC [hexane] | 9.9e-06
29 | ClC(Cl)(Cl)Cl [tetrachloromethane] | 0.00033
30 | ClC(Cl)=C(Cl)Cl [tetrachloroethene] | 0.00054
31 | Cc1ccc(O)c(C)c1 [1-hydroxy-2,4-dimethylbenzene] | 0.0019
32 | Clc1ccccc1 [chlorobenzene] | 0.0025
33 | ClCC(Cl)Cl [1,1,2-trichloroethane] | 0.01
34 | Cc1ccccc1C [1,2-dimethylbenzene] | 0.0019

Reference: Sander's compilation of Henry's law constants (doi:10.1016/0304-3894(88)85057-x)
